# Measurements taken from US20230233569A1 (Revolution Medicines, Inc., priority 2020, published 2023).
# pIC50: −log10 of the molar value. “And” between values parts separate entries of the source, which are not always exact repeats. Equal entries are not always repeated.
# Legend:
# Capan-1 (K-Ras G12V) = experiment: CellTiter-Glo cell viability assay, 5-day treatment; type: cell-based; details: Homo sapiens, CAPAN-1, 120 h, 5-day treatment; read-out: Capan-1 Cell Viability assay data (K-Ras G12V, IC50)
# Outline: (§1)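 Viability is read as luminescence on day 5 after direct compound addition to plated cells, following about 30 minutes' room-temperature equilibration. Each signal is scaled to mean DMSO as 100%.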
# NCI-H358 (K-Ras G12C) = experiment: as above; type: cell-based; details: Homo sapiens, NCI-H358, 120 h, 5-day treatment; read-out: H358 Cell Viability assay data (K-Ras G12C, IC50)
# Outline: as §1
# KRAS G12C = KRAS G12C (Homo sapiens, UniProt P01116+P62937, G12C); experiment: Disruption of BRAF RBD interaction with Ras (FRET / MOA assay, with Cyclophilin A); type: biochemical; details: read-out: KRAS G12C FRET data, IC50
# Sequence of KRAS G12C (P01116 1-169 isoform P01116-2 G12C): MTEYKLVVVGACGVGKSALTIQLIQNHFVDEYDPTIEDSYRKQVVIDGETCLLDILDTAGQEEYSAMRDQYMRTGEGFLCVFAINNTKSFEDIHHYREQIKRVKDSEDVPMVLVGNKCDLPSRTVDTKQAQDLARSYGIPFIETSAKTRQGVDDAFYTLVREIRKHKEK
# Sequence of KRAS G12C (P62937 whole entry): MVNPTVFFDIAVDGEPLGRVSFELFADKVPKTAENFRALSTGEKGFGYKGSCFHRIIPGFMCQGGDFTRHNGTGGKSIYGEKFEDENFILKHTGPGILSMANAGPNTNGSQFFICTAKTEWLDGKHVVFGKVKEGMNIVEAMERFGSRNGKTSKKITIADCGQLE
# Outline: (§2)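 Biochemical TR-FRET disruption assay: nucleotide-loaded K-Ras with Cyclophilin A and a BRAF RBD construct, compound titrated over 10 points from 30 μM (final).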
# KRAS G12D = KRAS G12D (Homo sapiens, UniProt P01116+P62937, G12D); experiment: as above; type: biochemical; details: read-out: KRAS G12D FRET data, IC50
# Sequence of KRAS G12D (P01116 1-169 isoform P01116-2 G12D limits assumed): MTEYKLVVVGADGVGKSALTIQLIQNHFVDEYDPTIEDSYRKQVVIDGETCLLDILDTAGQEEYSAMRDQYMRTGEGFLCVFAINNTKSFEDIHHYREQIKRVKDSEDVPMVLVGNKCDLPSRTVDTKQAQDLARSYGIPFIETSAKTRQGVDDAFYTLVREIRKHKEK
# Sequence of KRAS G12D (P62937 whole entry): as the sequence (P62937 whole entry) above
# Outline: as §2
# KRAS G12S = KRAS G12S (Homo sapiens, UniProt P01116+P62937, G12S); experiment: as above; type: biochemical; details: read-out: KRAS G12S FRET data, IC50
# Sequence of KRAS G12S (P01116 1-169 isoform P01116-2 G12S limits assumed): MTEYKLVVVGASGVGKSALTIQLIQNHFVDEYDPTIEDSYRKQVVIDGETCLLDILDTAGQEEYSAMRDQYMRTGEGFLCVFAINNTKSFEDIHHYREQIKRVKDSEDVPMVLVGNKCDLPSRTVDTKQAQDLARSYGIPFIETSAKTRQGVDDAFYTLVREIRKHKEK
# Sequence of KRAS G12S (P62937 whole entry): as the sequence (P62937 whole entry) above
# Outline: as §2
# KRAS G12V = KRAS G12V (Homo sapiens, UniProt P01116+P62937, G12V); experiment: as above; type: biochemical; details: KRAS G12V; read-out: KRAS G12V FRET data IC50
# Sequence of KRAS G12V (P01116 1-169 isoform P01116-2 G12V limits assumed): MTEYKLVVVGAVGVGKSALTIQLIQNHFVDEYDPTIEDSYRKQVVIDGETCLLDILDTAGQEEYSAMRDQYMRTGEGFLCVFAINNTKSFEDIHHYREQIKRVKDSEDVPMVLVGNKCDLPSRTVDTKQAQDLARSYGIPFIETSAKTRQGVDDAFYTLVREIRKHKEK
# Sequence of KRAS G12V (P62937 whole entry): as the sequence (P62937 whole entry) above
# Outline: as §2
# KRAS G13C = KRAS G13C (Homo sapiens, UniProt P01116+P62937, G13C); experiment: as above; type: biochemical; details: read-out: KRAS G13C FRET data, IC50
# Sequence of KRAS G13C (P01116 1-169 isoform P01116-2 G13C): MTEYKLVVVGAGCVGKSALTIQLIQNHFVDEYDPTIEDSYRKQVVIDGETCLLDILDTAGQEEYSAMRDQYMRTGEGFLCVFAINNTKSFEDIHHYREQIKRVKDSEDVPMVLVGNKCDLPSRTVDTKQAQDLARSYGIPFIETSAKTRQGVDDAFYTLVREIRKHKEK
# Sequence of KRAS G13C (P62937 whole entry): as the sequence (P62937 whole entry) above
# Outline: as §2
# KRAS G13D = KRAS G13D (Homo sapiens, UniProt P01116+P62937, G13D); experiment: as above; type: biochemical; details: KRAS G13D; read-out: KRAS G13D FRET data IC50
# Sequence of KRAS G13D (P01116 1-169 isoform P01116-2 G13D limits assumed): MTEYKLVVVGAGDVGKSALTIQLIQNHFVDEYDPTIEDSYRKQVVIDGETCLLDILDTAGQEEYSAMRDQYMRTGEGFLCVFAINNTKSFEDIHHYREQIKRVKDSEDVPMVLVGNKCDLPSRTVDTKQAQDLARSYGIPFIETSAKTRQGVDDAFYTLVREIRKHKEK
# Sequence of KRAS G13D (P62937 whole entry): as the sequence (P62937 whole entry) above
# Outline: as §2
# KRAS WT = KRAS WT (Homo sapiens, UniProt P01116+P62937); experiment: as above; type: biochemical; details: KRAS WT; read-out: KRAS WT FRET data IC50
# Sequence of KRAS WT (P01116 1-169 isoform P01116-2 limits assumed): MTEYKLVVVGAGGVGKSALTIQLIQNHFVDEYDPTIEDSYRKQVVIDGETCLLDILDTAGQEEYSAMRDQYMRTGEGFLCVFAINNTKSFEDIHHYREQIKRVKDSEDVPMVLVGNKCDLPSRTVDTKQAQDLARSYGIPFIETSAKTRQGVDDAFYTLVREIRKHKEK
# Sequence of KRAS WT (P62937 whole entry): as the sequence (P62937 whole entry) above
# Outline: as §2
# NRAS G12C = NRAS G12C (Homo sapiens, UniProt P01111+P62937, G12C); experiment: as above; type: biochemical; details: NRAS G12C; read-out: NRAS G12C FRET data IC50
# Sequence of NRAS G12C (P01111 whole entry G12C): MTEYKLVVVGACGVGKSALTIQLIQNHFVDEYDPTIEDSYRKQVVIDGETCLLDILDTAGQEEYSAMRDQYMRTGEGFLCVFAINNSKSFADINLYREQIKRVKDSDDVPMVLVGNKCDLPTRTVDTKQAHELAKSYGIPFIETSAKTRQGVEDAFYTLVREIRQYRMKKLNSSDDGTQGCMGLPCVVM
# Sequence of NRAS G12C (P62937 whole entry): as the sequence (P62937 whole entry) above
pIC50 (NCI-H358 (K-Ras G12C)),pIC50 (KRAS G12C),pIC50 (KRAS G12D),pIC50 (KRAS G12S),pIC50 (KRAS G12V),pIC50 (KRAS G13C),pIC50 (KRAS G13D),pIC50 (KRAS WT),pIC50 (NRAS G12C),SMILES,pIC50 (Capan-1 (K-Ras G12V))
6.00 to 7.00,6.00 to 7.00,6.00 to 7.00,6.00 to 7.00,6.00 to 7.00,7.00 to 8.00,6.00 to 7.00,6.00 to 7.00,6.00 to 7.00,CCn1c(-c2cccnc2[C@H](C)OC)c2c3cc(ccc31)-c1cc(O)cc(c1)C[C@H](NC(=O)[C@H](C(C)C)N(C)C(=O)N1CC(N(C)C)C1)C(=O)N1CCC[C@H](N1)C(=O)OCC(C)(C)C2 [Example A171],6.00 to 7.00
5.00 to 6.00,6.00 to 7.00 and 7.00 to 8.00,6.00 to 7.00 and 7.00 to 8.00,6.00 to 7.00 and 7.00 to 8.00,6.00 to 7.00 and 5.00 to 6.00,7.00 to 8.00,7.00 to 8.00,6.00 to 7.00 and 7.00 to 8.00,6.00 to 7.00,CCn1c(-c2cccnc2[C@H](C)OC)c2c3cc(ccc31)-c1cc(O)cc(c1)C[C@H](NC(=O)[C@H](C(C)C)N(C)C(=O)C1NCCC1C(C)C)C(=O)N1CCC[C@H](N1)C(=O)OCC(C)(C)C2 (some centres unmarked) [Example A227],< 5.00
6.00 to 7.00,7.00 to 8.00,7.00 to 8.00,7.00 to 8.00,6.00 to 7.00,7.00 to 8.00,7.00 to 8.00,7.00 to 8.00,7.00 to 8.00,CCn1c(-c2cccnc2[C@H](C)OC)c2c3cc(ccc31)-c1cc(O)cc(c1)C[C@H](NC(=O)[C@H](C(C)C)N(C)C(=O)C1NCCC13CC3)C(=O)N1CCC[C@H](N1)C(=O)OCC(C)(C)C2 (some centres unmarked) [Example A228],6.00 to 7.00
6.00 to 7.00,6.00 to 7.00,6.00 to 7.00,6.00 to 7.00,6.00 to 7.00,6.00 to 7.00,6.00 to 7.00,6.00 to 7.00,6.00 to 7.00,CCn1c(-c2cccnc2[C@H](C)OC)c2c3cc(ccc31)-c1cc(O)cc(c1)C[C@H](NC(=O)[C@H](C(C)C)N(C)C(=O)C1(CO)CC1)C(=O)N1CCC[C@H](N1)C(=O)OCC(C)(C)C2 [Example A232],6.00 to 7.00
7.00 to 8.00,7.00 to 8.00,6.00 to 7.00,6.00 to 7.00,7.00 to 8.00,7.00 to 8.00,6.00 to 7.00,6.00 to 7.00,7.00 to 8.00,CCn1c(-c2cccnc2[C@H](C)OC)c2c3cc(ccc31)-c1cc(O)cc(c1)C[C@H](NC(=O)[C@H](C(C)C)N(C)C(=O)[C@H]1CCN(C(=O)OC(C)(C)C)C1)C(=O)N1CCC[C@H](N1)C(=O)OCC(C)(C)C2 [Example A233],7.00 to 8.00

SMILES,pIC50 (NCI-H358 (K-Ras G12C)),pIC50 (KRAS G12C),pIC50 (KRAS G12D),pIC50 (KRAS G12S),pIC50 (KRAS G12V),pIC50 (KRAS G13C),pIC50 (KRAS G13D),pIC50 (KRAS WT),pIC50 (NRAS G12C),pIC50 (Capan-1 (K-Ras G12V))
CCn1c(-c2cccnc2[C@H](C)OC)c2c3cc(ccc31)-c1cc(O)cc(c1)C[C@H](NC(=O)[C@H](C(C)C)N(C)C(=O)C1(N)CC1)C(=O)N1CCC[C@H](N1)C(=O)OCC(C)(C)C2 [Example A168],6.00 to 7.00,7.00 to 8.00,6.00 to 7.00,6.00 to 7.00,6.00 to 7.00,7.00 to 8.00,6.00 to 7.00,7.00 to 8.00,7.00 to 8.00,6.00 to 7.00
CCn1c(-c2cccnc2[C@H](C)OC)c2c3cc(ccc31)-c1cc(O)cc(c1)C[C@H](NC(=O)C(C1CC1)C1CC1)C(=O)N1CCC[C@H](N1)C(=O)OCC(C)(C)C2 [Example A184],6.00 to 7.00,6.00 to 7.00,5.00 to 6.00,6.00 to 7.00,6.00 to 7.00,7.00 to 8.00,6.00 to 7.00,6.00 to 7.00,6.00 to 7.00,5.00 to 6.00
CCn1c(-c2cccnc2[C@H](C)OC)c2c3cc(ccc31)-c1cc(O)cc(c1)C[C@H](NC(=O)[C@H](C(C)C)N(C)C(=O)O[C@H]1CCOC1)C(=O)N1CCC[C@H](N1)C(=O)OCC(C)(C)C2 [Example A209],6.00 to 7.00,6.00 to 7.00,6.00 to 7.00,6.00 to 7.00,6.00 to 7.00,6.00 to 7.00,6.00 to 7.00,6.00 to 7.00,6.00 to 7.00,6.00 to 7.00
